Measurements taken from US11053235B2, “Substituted 1,4-dihydropyrimidines for the treatment of HBV infection or HBV-induced diseases” (Janssen Sciences Ireland Unlimited Company, priority 2018, dated 2021).

What was measured:
HBV = test: Anti-viral assay in HepG2.2.15 cells: HBV inhibitory activity (HBV DNA in culture medium by q-PCR); type: cell-based; conditions: Hepatitis B virus, HepG2.2.15, 144 h, HepG2.2.15 cells, 6 days treatment, HBV DNA in culture medium by q-PCR, highest concentration 10 uM; read-out: EC50
From the text: (§1) Example 2: Anti-Viral Assay in HepG2.2.15 Cells
(§2) 1.1. Cell Line • HepG2.2.15 (the HepG2.2.15 cell line can be produced by transfection of the HepG2 cell line as described in Sells, Chen, and Acs 1987 (Proc. Natl. Acad. Sci. USA 84:1005-1009), and the HepG2 cell line is available from ATCC® under number HB-8065™). Reagents • DMEM/F12 (INVITROGEN-11330032) • FBS (GIBCO-10099-141) • Dimethyl sulfoxide(DMSO) (SIGMA-D2650) • Penicillin-streptomycin solution (HYCLONE-SV30010) • NEAA (INVITROGEN-1114050) • L-Glutamine (INVITROGEN-25030081) • Geneticin Selective Antibiotic (G418, 500 mg/ml) (INVITROGEN-10131027) • Trypsinase digestion solution (INVITROGEN-25300062) • CCK8 (BIOLOTE-35004) • QIAamp 96 DNA Blood Kit (12) (QIAGEN-51162) • FastStart Universal Probe Mast Mix (ROCHE-04914058001)
(§3) 2.1. HBV Inhibitory Activity and Cytotoxicity Determination
(§4) Seed the cell HepG2.2.15 cells into 96-well plate in 2% FBS culture medium at the density of 40,000 cells/well and 5,000 cells/well for HBV inhibitory activity and cytotoxicity determination, respectively. After seeding, incubate the cell plates at 37° C., 5% CO2 overnight. The next day, medium containing compounds is added to the cell to treat the cells for 6 days with medium refreshed once in the middle of the treatment. 8 dose points with 3 folds dilution of each compound were adopted and the highest concentration of the compounds is 10 uM and 100 uM for HBV inhibitory activity and cytotoxicity determination, respectively.
The HBV DAN change in the cell culture medium induced by the compounds is measured by q-PCR method. Briefly, the HBV DNA in the culture medium is extracted using QIAamp 96 DNA Blood Kit according to the manual and then quantified by q-PCR using the primers and probe in the table below.
(§5) EC50 and CC50 values are calculated by the GRAPHPAD PRISM software.

[1] = Cytotoxicity determination in HepG2.2.15 cells (CCK-8); type: cell-based; conditions: human, 6 days treatment, CCK-8, highest concentration 100 uM
From the text: as §1, §2, §3, §4
After 6 days of compounds treatment, add 20 μl CCK-8 reagents to each well of cytotoxicity assay plates, incubate the plate at 37° C., 5% CO2 for 2.5 h and measure the absorbance at 450 nm wavelength, at the same time read the absorbance at 630 nm wavelength as reference.
as §5

| SMILES | EC50 (HBV) [nM] | CC50 at 6 days [1] [nM] |
| --- | --- | --- |
| CCOC(=O)C1=C([C@H]2CC[C@H](c3cc(C(=O)O)nn3C)CC2)NC(c2nccs2)=NC1c1ccc(F)c(F)c1Cl (single isomer, unassigned) [Compound I-35-C, (trans)-5-(4-(6-(2-chloro-3,4-difluorophenyl)-5-(ethoxycarbonyl)-2-(thiazol-2-yl)-3,6-dihydropyrimidin-4-yl)cyclohexyl)-1-methyl-1H-pyrazole-3-carboxylic Acid] | 63 | 7160 |
| CCOC(=O)C1=C([C@H]2CC[C@H](c3cc(C(=O)O)n(C)n3)CC2)NC(c2nccs2)=NC1c1ccc(F)c(F)c1Cl (single isomer, unassigned) [Compound I-36-B, (trans)-3-(4-(6-(2-Chloro-3,4-difluorophenyl)-5-(ethoxycarbonyl)-2-(thiazol-2-yl)-3,6-dihydropyrimidin-4-yl)cyclohexyl)-1-methyl-1H-pyrazole-5-carboxylic Acid] | 6.2 | 5940 |
| CCOC(=O)C1=C([C@H]2CC[C@H](c3cnn(CC(C)(C)C(=O)O)c3)CC2)NC(c2nccs2)=NC1c1ccc(F)c(F)c1Cl (single isomer, unassigned) [Compound I-37-C, (trans)-3-(4-(4-(6-(2-Chloro-3,4-difluorophenyl)-5-(ethoxycarbonyl)-2-(thiazol-2-yl)-3,6-dihydropyrimidin-4-yl)cyclohexyl)-1H-pyrazol-1-yl)-2,2-dimethylpropanoic Acid] | 8.3 | 2220 |
| CCOC(=O)C1=C([C@H]2CC[C@H](n3cc(C(=O)O)cn3)CC2)NC(c2nccs2)=NC1c1ccc(F)c(F)c1Cl (single isomer, unassigned) [Compound I-38-B, (trans)-1-(4-(6-(2-Chloro-3,4-difluorophenyl)-5-(ethoxycarbonyl)-2-(thiazol-2-yl)-3,6-dihydropyrimidin-4-yl)cyclohexyl)-1H-pyrazole-4-carboxylic Acid] | < 4.6 | 11300 |
| CCOC(=O)C1=C([C@H]2CC[C@@H](n3nccc3C(=O)O)CC2)NC(c2nccs2)=NC1c1ccc(F)c(F)c1Cl (single isomer, unassigned) [Compound I-39-B, (cis)-1-(4-(6-(2-Chloro-3,4-difluorophenyl)-5-(ethoxycarbonyl)-2-(thiazol-2-yl)-3,6-dihydropyrimidin-4-yl)cyclohexyl)-1H-pyrazole-5-carboxylic Acid] | 82 | 7590 |
| CCOC(=O)C1=C([C@H]2CC[C@H](n3nccc3C(=O)O)CC2)NC(c2nccs2)=NC1c1ccc(F)c(F)c1Cl (single isomer, unassigned) [Compound I-39-C, (trans)-1-(4-(6-(2-Chloro-3,4-difluorophenyl)-5-(ethoxycarbonyl)-2-(thiazol-2-yl)-3,6-dihydropyrimidin-4-yl)cyclohexyl)-1H-pyrazole-5-carboxylic Acid] | 110 | 7750 |
| CCOC(=O)C1=C([C@H]2CC[C@H](c3ncc(C(=O)O)cn3)CC2)NC(c2nccs2)=NC1c1ccc(F)c(F)c1Cl (single isomer, unassigned) [Compound I-40-A, (trans)-2-(4-(6-(2-Chloro-3,4-difluorophenyl)-5-(ethoxycarbonyl)-2-(thiazol-2-yl)-3,6-dihydropyrimidin-4-yl)cyclohexyl)pyrimidine-5-carboxylic Acid] | < 4.6 | 4430 |
| CCOC(=O)C1=C([C@H]2CC[C@H](c3nc(C(=O)O)cs3)CC2)NC(c2nccs2)=NC1c1ccc(F)c(F)c1Cl (single isomer, unassigned) [Compound I-41-B, (trans)-2-(4-(6-(2-Chloro-3,4-difluorophenyl)-5-(ethoxycarbonyl)-2-(thiazol-2-yl)-3,6-dihydropyrimidin-4-yl)cyclohexyl)thiazole-4-carboxylic Acid] | 17 | 1020 |
| CCOC(=O)C1=C([C@H]2CC[C@H](c3cc(C(=O)O)no3)CC2)NC(c2nccs2)=NC1c1ccc(F)c(F)c1Cl (single isomer, unassigned) [Compound I-42-B, (trans)-5-(4-(6-(2-Chloro-3,4-difluorophenyl)-5-(ethoxycarbonyl)-2-(thiazol-2-yl)-3,6-dihydropyrimidin-4-yl)cyclohexyl)isoxazole-3-carboxylic Acid] | 83 | 10800 |
| CCOC(=O)C1=C([C@H]2CC[C@H](c3cc(C(=O)O)on3)CC2)NC(c2nccs2)=NC1c1ccc(F)c(F)c1Cl (single isomer, unassigned) [Compound I-43-B] | 29 | 13700 |
| CCOC(=O)C1=C([C@H]2CC[C@H](c3ccc(C(=O)O)cc3)CC2)NC(c2nccs2)=NC1c1ccc(F)c(F)c1Cl (single isomer, unassigned) [Compound I-44-A, (trans)-4-(4-(6-(2-Chloro-3,4-difluorophenyl)-5-(ethoxycarbonyl)-2-(thiazol-2-yl)-3,6-dihydropyrimidin-4-yl)cyclohexyl)benzoic Acid] | 8.5 | 1810 |
| COC(=O)C1=C([C@H]2CC[C@H](c3ncc(C4(C(=O)O)CC4)cn3)CC2)NC(c2nccs2)=NC1c1ccc(F)c(F)c1Cl (single isomer, unassigned) [Compound I-46-C, 1-(2-((trans)-4-(6-(2-chloro-3,4-difluorophenyl)-5-(methoxycarbonyl)-2-(thiazol-2-yl)-3,6-dihydropyrimidin-4-yl)cyclohexyl)pyrimidin-5-yl)cyclopropanecarboxylic Acid] | 15 | 16100 |
| COC(=O)C1=C([C@H]2CC[C@H](c3ncc(C)c(C(=O)O)n3)CC2)NC(c2nccs2)=NC1c1ccc(F)c(F)c1Br (single isomer, unassigned) [Compound I-47-D, 2-((Trans)-4-(6-(2-bromo-3,4-difluorophenyl)-5-(methoxycarbonyl)-2-(thiazol-2-yl)-3,6-dihydropyrimidin-4-yl)cyclohexyl)-5-methylpyrimidine-4-carboxylic Acid] | 5.9 | 19300 |
| COC(=O)C1=C([C@H]2CC[C@H](c3nc(CC(=O)O)c(C)o3)CC2)NC(c2nccs2)=NC1c1ccc(F)cc1Cl (single isomer, unassigned) [Compound I-48-B, (trans)-2-(2-(4-(6-(2-Chloro-4-fluorophenyl)-5-(methoxycarbonyl)-2-(thiazol-2-yl)-3,6-dihydropyrimidin-4-yl)cyclohexyl)-5-methyloxazol-4-yl)acetic Acid] | 22 | 23000 |
| COC(=O)C1=C([C@H]2CC[C@H](c3ncc(CC(=O)O)cn3)CC2)NC(c2nccs2)=NC1c1ccc(F)c(F)c1Cl (single isomer, unassigned) [Compound I-49-A, 2-(2-((trans)-4-(6-(2-chloro-3,4-difluorophenyl)-5-(methoxycarbonyl)-2-(thiazol-2-yl)-3,6-dihydropyrimidin-4-yl)cyclohexyl)pyrimidin-5-yl)acetic Acid] | 11 | 24700 |
| COC(=O)C1=C([C@H]2CC[C@H](c3ncc(CC(=O)O)cn3)CC2)NC(c2nccs2)=NC1c1ccc(F)cc1Cl (single isomer, unassigned) [Compound I-50-A, 2-(2-((trans)-4-(6-(2-chloro-4-fluorophenyl)-5-(methoxycarbonyl)-2-(thiazol-2-yl)-3,6-dihydropyrimidin-4-yl)cyclohexyl)pyrimidin-5-yl)acetic Acid] | 11 | 16400 |
| COC(=O)C1=C(C2CCN(c3ncc(CC(=O)O)cn3)CC2)NC(c2nccs2)=NC1c1ccc(F)c(F)c1C (single isomer, unassigned) [II-1-B, 2-(2-(4-(6-(3,4-Difluoro-2-methylphenyl)-5-(methoxycarbonyl)-2-(thiazol-2-yl)-3,6-dihydropyrimidin-4-yl)piperidin-1-yl)pyrimidin-5-yl)acetic Acid] | < 4.6 | 4970 |
| CCOC(=O)C1=C(C2CCN(c3ncc(C)c(C(=O)O)n3)CC2)NC(c2nccs2)=NC1c1cccc(F)c1C (single isomer, unassigned) [II-2-B, 2-(4-(5-(Ethoxycarbonyl)-6-(3-fluoro-2-methylphenyl)-2-(thiazol-2-yl)-3,6-dihydropyrimidin-4-yl)piperidin-1-yl)-5-methylpyrimidine-4-carboxylic Acid] | 8.4 | 12400 |
